pIC50: −log10 of the molar value.

Data set [1] deals with SK-OV-3. Kind of data set: Inhibitory activity against SKOV3 (human ovarian carcinoma) cell line with Escherichia coli nitroreductase combination after 18 hours drug exposure. It counts as functional, cell-based. Conditions: SK-OV-3, 18 h.
Data set [2] is described as follows: Inhibitory activity against V79 (chinese hamster fibroblast) cell line with Escherichia coli nitroreductase combination after 72 hours drug exposure. Format: functional, cell-based, Cricetulus griseus.
The nature of data set [3]: Ratio of the activity in absence to that of presence of Escherichia coli nitroreductase in SKOV3 (human ovarian carcinoma) cell line. It counts as functional.
A short description of data set [4]: Inhibitory activity against V79 (chinese hamster fibroblast) cell line without Escherichia coli nitroreductase combination after 72 hours drug exposure. Format: functional, cell-based, Cricetulus griseus.
For data set [5], the system named is SK-OV-3. Kind of data set: Inhibitory activity against SKOV3 (human ovarian carcinoma) cell line without Escherichia coli nitroreductase combination after 18 hours drug exposure. It counts as functional, cell-based.
A short description of data set [6]: Ratio of the activity in absence to that of presence of Escherichia coli nitroreductase V79 (chinese hamster fibroblast) cell line. Format: functional.
Data set [7] in a line: Inhibitory activity against V79 (chinese hamster fibroblast) cell line without Escherichia coli nitroreductase combination after 1 hour drug exposure. Format: functional, cell-based, Cricetulus griseus.
Data set [8] is described as follows: Inhibitory activity against V79 (chinese hamster fibroblast) cell line with Escherichia coli nitroreductase combination after 1 hour drug exposure. It counts as functional, cell-based, Cricetulus griseus.
Data set [9] in a line: Ratio of the activity in absence to that of presence of the Escherichia coli nitroreductase in SKOV3 (human ovarian carcinoma) cell line infected at lower infection rate of 10 pfu/cell. It counts as functional.
Data set [10] has as its system SK-OV-3. Kind of data set: Inhibitory activity against SKOV3 (human ovarian carcinoma) cell line infected at lower infection rate of 10 pfu/cell with Escherichia coli nitroreductase combination after 18 hours drug exposure. The note with it: SK-OV-3, 18 h. It counts as functional, cell-based.
A short description of data set [11]: Kcat was determined. It counts as ADME.
Data set [12] in a line: Ratio of Kcat to that of Km was determined. It counts as ADME.

On to `O=[N+]([O-])c1ccc2c(c1)NP(=O)(N(CCCl)CCCl)OC2` (stereo not drawn), for which the negative-log IC50 (pIC50) in the data set on SK-OV-3 [1] is 4.26; in [2] it was 5.52; in [4], under 4.00; with SK-OV-3 [5] (Homo sapiens, SK-OV-3, 18 h), 3.26. In addition, the Ratio in data set [3] is on record as 10; in data set [6], over 33.

For the compound `O=[N+]([O-])c1cccc([C@H]2CCNP(=O)(N(CCCl)CCCl)O2)c1` (stereo partly drawn), the pIC50 is 5.33 in the data set with SK-OV-3 [1]; 7.54 in data set [2]; 3.08 in data set [4]; under 4.00 in data set [7]; 3.17 with SK-OV-3 [5] (Homo sapiens, SK-OV-3, 18 h); 6.47 in data set [8]. Besides, the Ratio in data set [3] is 145.

As for `O=[N+]([O-])c1cccc([C@@H]2CCNP(=O)(N(CCCl)CCCl)O2)c1` (stereo partly drawn), the negative-log IC50 (pIC50) is 5.30 with SK-OV-3 [1]; 7.57 in data set [2]; 3.22 in data set [4]; under 4.00 in data set [7]; under 3.00 with SK-OV-3 [5] (Homo sapiens, SK-OV-3, 18 h); 6.77 in [8]. For the same compound, the Ratio in [3] is recorded as over 200.

Take `NP(=O)(OCc1ccc([N+](=O)[O-])cc1)N(CCCl)CCCl` (stereo not drawn): the pIC50 with SK-OV-3 [1] is 5.92; in [2], 9.40; in [4] it was 4.17; in the data set with SK-OV-3 [10], 5.21; in [7] it was under 4.00; in the data set with SK-OV-3 [5] (Homo sapiens, SK-OV-3, 18 h), under 2.00. For the same compound, the pIC50 in [8] was 8.00. Further, the Ratio in data set [3] is given as over 833; in data set [9], over 161. In addition, the k cat in data set [11] worked out at 14 s⁻¹. In addition, the “k cat/Km” value in data set [12] was found to be 71949 M⁻¹ s⁻¹.

Consider `NC(=O)c1cc(N2CC2)c([N+](=O)[O-])cc1[N+](=O)[O-]` [TRETAZICAR], for which the pIC50 was 5.33 in the data set on SK-OV-3 [1]; 7.44 in [2]; 3.60 in [4]; 4.28 with SK-OV-3 [10]; under 4.00 in data set [7]; under 3.00 in the data set on SK-OV-3 [5] (Homo sapiens, SK-OV-3, 18 h). Moreover, the figures for the pIC50 (in the data set with SK-OV-3 [5] (sk-ov-3); in data set [8]) were 3.20 and 6.51, respectively. For the same compound, the Ratio is listed as over 213 in data set [3] and 12 in [9]. The compound further had a k cat in data set [11] of 6.6 s⁻¹. In addition, in data set [12], the 1/2Kcat/Km came out at 3746 M⁻¹ s⁻¹.

For the origin of these results see ChEMBL document CHEMBL1136805, “Nitroaryl phosphoramides as novel prodrugs for E. coli nitroreductase activation in enzyme prodrug therapy” (J Med Chem, 2003).
